Assay results published in patent EP4076432B1, “COMPOSITION AND METHOD FOR THE PREVENTION AND TREATMENT OF OBESITY” (Vector Vitale IP LLC, priority 2019, dated 2021).
Values joined by “and” are separate entries in the source; they are usually repeats but may differ in a detail not shown here. Identical values can stand only once. “Also recorded” adds a separate entry of the source.

Legend:
Glucose tolerance test = type: in vivo, rats; design: Glucose tolerance test, 0 min (1 h after effector administration): unit not given here; settings: for glucose levels in the glucose tolerance test: compared with the control group
Description: 5 animals were used within the same experimental group.

[1] = Intraperitoneal administration of zinc preparations to intact rats (insulin, superoxide dismutase, islets of Langerhans, metals, body weight); type: in vivo; settings: 7 injections; for accumulation of zinc in the kidney tissues / accumulation of zinc in the liver tissues: day 1 and day 7 after withdrawal
Procedure: The current dose was calculated by zinc.
The rat serum was prepared from whole blood.
The total kidney and liver homogenates were centrifuged at 600 g for 15 minutes.
The optical density was measured at 492 nm.

[2] = Serum lipids, alkaline phosphatase activity and albumin in obesity model; type: in vivo, rats; settings: table is an image
Description: Test kit // Pliva-Lachema Diagnostika. - 2008.
The alkaline phosphatase activity was expressed in relative units.

[3] = test system: peripheral serotonergic system (duodenum); assay: Indicators of the peripheral serotonergic system (duodenum) in obesity model; type: in vivo, rats; settings: zinc aspartate 4.5 mg/animal intragastrically every third day, week 10
Description: (§1) The tissue : buffer ratio was 1:10.
The samples were reprecipitated by centrifugation. […]
(§2) The supernatant was used in further studies.

islets of Langerhans = assay: Morpho-functional analysis of pancreas in obesity model; type: in vivo, rats; settings: zinc aspartate 4.5 mg/animal intragastrically every third day
Description: After fixation, the pieces were rinsed in tap water. Then the material was dehydrated.
Dried preparations were stained with hematoxylin and eosin.

[4] = test system: products of oxidative modification of proteins; assay: Serum levels of products of oxidative modification of proteins in obesity model; type: in vivo; settings: DIO rats (high-fat diet), zinc aspartate 4.5 mg/animal intragastrically every third day, week 10
Procedure: (§3) Animal serum was prepared from whole blood. […] Samples were centrifuged for 15 min at 2500 g.
Proteins were precipitated by adding a 20% TCA solution.

[5] = test system: central serotonergic system (brain); assay: Indicators of the central serotonergic system (brain) in obesity model; type: in vivo, rats; settings: zinc aspartate 4.5 mg/animal intragastrically every third day, week 10
Description: The animal's head was separated from the body and the skull was carefully cut. The brain was carefully lifted with a scalpel from the bony vault, all cranial nerves were amputated and the brain was removed from the skull. The brain was divided into two parts with a longitudinal incision made between the hemispheres.
as §1
(§4) The samples were reprecipitated by centrifugation.
(§5) University. Medicine. - 2000. - 1, No. 494. - P. 40-43.
as §2

[6] = test system: pro-inflammatory (IL-1, IL-6, IL-12, IFN-γ) and anti-inflammatory (IL-4, IL-10, TGF) cytokines; assay: Cytokine profile in adipose tissue in obesity model (immunoenzyme method); type: in vivo, rats; settings: zinc aspartate 4.5 mg/animal intragastrically every third day, week 10
Procedure: Adipose tissue was crushed using cold scissors then transferred to a homogenizer with a loose-fitting Teflon pestle. […] Primary homogenate thus obtained was centrifuged at 600 g for 15 minutes. The supernatant was carefully collected and re-centrifuged at 15,000 g for 15 minutes. The supernatant was then frozen and stored at -80°C until the experiments.
The antigen solution, previously diluted with 0.1 M NaHCO3 buffer, pH 9.6, to a concentration of 10 µg/ml, was incubated in the plate wells for 12 hours at 4°C. Unbound material was removed by washing the wells three times with TBS buffer, first with 0.05% Tween-20, then without Tween-20. Non-specific binding sites were blocked by adding a solution of 5% skim milk or a solution of 1% bovine serum albumin to the plate wells and incubating them for 60 minutes at 37°C. After incubation, the wells were washed three times with TBS, first with 0.05% Tween-20, then without Tween-20. Primary antibodies were diluted in TBS in accordance with the manufacturer's instructions and incubated with the antigen for 60 min at 37°C. After washing with TBS working buffer, first with the addition of 0.05% Tween-20, then without Tween-20, the conjugate of secondary antibodies was added to the wells and incubated for 60 min at 37°C. As with the primary antibodies, secondary antibodies were diluted in TBS in accordance with the manufacturer's instructions. After the washing procedure, phenyldiamine dihydrochloride as substrate in 0.05M phosphate-citrate buffer was added to each well, followed by the addition of 0.3% hydrogen peroxide. After 10 minutes, the reaction time needed for development, 2.5 n H2SO4 was added.
The absorbance at a wavelength of 492 nm was measured using a µQuant microplate spectrophotometer (BioTek Instruments).

[7] = Anthropometric values, amount and calorie content of food in high-fat diet induced obesity model; settings: zinc aspartate 4.5 mg/animal intragastrically every third day; for BMI (g/cm^2) / Weight gain as of the end of the experiment (%): week 10
Description: White non-pedigree rats with an initial weight of 195-205±10 g were used in the experiment.
Before the start of the experiment, animals were maintained on a standard diet of the vivarium. To induce obesity in experimental animals, they were fed high-fat diet which consisted of standard feed (60%), lard (10%), chicken eggs (10%), sucrose (9%), peanuts (5%), dry milk (5%) and sunflower oil (1%) (1%) (see X. H. Shen et al., Exp. Biol. and Med. 235: 47-51 (2010)).
Animals in all groups were weighed once a week after an overnight fast. The amount of feed to be consumed by the animals was determined daily. At the end of a 10-week period of the development of obesity models, 24 hours after the last administration of the zinc isotope solution, animals were removed from their cages and decapitated.
The body mass index (BMI) (the ratio of body weight (g) to the square of body length (cm^2)) was calculated at the end of the experiment.
Animals with an initial weight of 195-205±10 g maintained on the standard diet of the vivarium before performing obesity models were used in the experiments.
Animals in all groups were weighed once a week after an overnight fast. The amount of feed to be consumed by the animals was determined daily.

[8] = test system: pro-inflammatory (IL-1, IL-6, IL-12, IFN-γ) and anti-inflammatory (IL-4, IL-10, TGF) cytokines; assay: Serum cytokine profile in obesity model (immunoenzyme method); type: in vivo, rats; settings: zinc aspartate 4.5 mg/animal intragastrically every third day
Procedure: as §3

[9] = test system: serotonergic system (serum); assay: Serum tryptophan, serotonin and monoamine oxidase activity in obesity model; type: in vivo, rats; settings: zinc aspartate 4.5 mg/animal intragastrically every third day, week 10
Procedure: as §3, §4, §5

superoxide dismutase = assay: Serum superoxide dismutase activity in obesity model; type: in vivo; settings: DIO rats (high-fat diet), zinc aspartate 4.5 mg/animal intragastrically every third day, week 10
Procedure: To measure superoxide dismutase activity, a method based on the ability of this enzyme to inhibit auto-oxidation of adrenaline was used.
Serum aliquots were added to microplate wells containing 0.2M bicarbonate buffer, pH 10. The reaction was initiated by adding 0.1% adrenaline solution in each well. A relevant volume of buffer was added to the "blank" wells to which no test sample was added. The optical density was measured at a wavelength of 347 nm using a µQuant microplate spectrophotometer (BioTek Instruments) at the 4th and 8th minute after adrenaline was added to the wells. The enzyme activity was expressed in relative units/min/mg.

[10] = 3750 µg of zinc per 1 kg intraperitoneally every other day
[11] = 3750 µg of zinc per 1 kg intraperitoneally
[12] = rats having obesity (high-fat diet)
[13] = DIO rats (high-fat diet), week 10
[14] = control rats (standard diet), week 10

## CC(=O)[O-].CC(=O)[O-].[Zn+2] [Zn acetate, Zn(CH3COO)2, reference compound]
Glucose tolerance test; blood glucose, fast overnight, dose: 5 mg/kg in a volume of 2 ml, individual animals 1-5, 5 mg/kg
  Glucose tolerance test, 0 min (1 h after effector administration): 4.6 and 5.2 (2×) and 4.9 and 5.1
Glucose tolerance test; blood glucose, glucose 3 g/kg body weight in 2 ml, dose: 5 mg/kg in a volume of 2 ml, individual animals 1-5, 5 mg/kg
  Glucose tolerance test, 60 min (1 h after glucose administration): 7.2 (2×) and 6.9 and 7.3 and 6.8
Glucose tolerance test
  glucose levels in the glucose tolerance test: glucose levels also dropped, though not so strongly
[1]; [10]
  serum insulin levels at day 7 after the withdrawal: a drop in the insulin levels to the value of those of intact/control animals
  serum insulin levels on the first day after the drug withdrawal: a significant increase
[1]; [11]
  accumulation of zinc in the kidney tissues: significantly increased
  accumulation of zinc in the liver tissues: significantly increased

## N[C@@H](CC(=O)[O-])C(=O)[O-].[Zn+2] [^64Zne, zinc aspartate]
[2]; animals fed a high-fat diet, zinc aspartate 2.25 mg/ml intragastrically in a volume of 2 ml
  levels of triglycerides, cholesterol and free fatty acids in the serum: almost at the same level as in the control group
[2]; serum, animals on high-fat diet treated intragastrically
  alkaline phosphatase activity: higher than both in the group of diet-induced obesity models and in the control group
[2]; serum, obese animals treated intragastrically, versus untreated obese animals
  albumin values: had no effect on albumin values
[3]; DIO rats (high-fat diet)
  Indoleamine dioxygenase activity, µmol/mg protein: 1768 ± 274 µmol/mg protein
  Monoamine oxidase activity, RU/mg protein: 1.72 ±0.03 RU/mg protein
  Serotonin: 9.73 ± 0.82 µg/g
  Tryptophan: 89.4 ± 8.99 µg/g
  Tryptophan decarboxylase activity, RU/mg protein: 0.78 ± 0.19 RU/mg protein
  Tryptophan hydroxylase activity, RU/mg protein: 253 ± 58 RU/mg protein
[3]; control rats (standard diet)
  Indoleamine dioxygenase activity, µmol/mg protein: 2150 ± 231 µmol/mg protein
  Monoamine oxidase activity, RU/mg protein: 3.82 ±0.07 RU/mg protein
  Serotonin: 7.41 ± 0.54 µg/g
  Tryptophan: 154.7 ± 13.6 µg/g
  Tryptophan decarboxylase activity, RU/mg protein: 0.79 ± 0.22 RU/mg protein
  Tryptophan hydroxylase activity, RU/mg protein: 375 ± 61 RU/mg protein
Islets of Langerhans; [12]
  cross-sectional surface area of the islets of Langerhans, increase compared with the obesity group: 43%
  cross-sectional surface area of the islets of Langerhans, lower than the control value: 29%
Islets of Langerhans; rats that ate a standard diet
  cross-sectional surface area of the islets of Langerhans, decrease compared with the control group: 39%
[4]
  Aldehyde-dinitrophenyl-hydrazones, nmol/mg protein: 0.253±0.012 nmol/mg protein
  Ketone-dinitrophenyl-hydrazones, nmol/mg protein: 0.200±0.024 nmol/mg protein
[5]; DIO rats (high-fat diet)
  Indoleamine dioxygenase activity, µmol/mg protein: 2007 ± 175 µmol/mg protein
  Monoamine oxidase activity, RU/mg protein: 0.99±0.08 RU/mg protein
  Serotonin: 20.1 ± 3.21 µg/g
  Tryptophan: 31.56 ± 2.14 µg/g
  Tryptophan decarboxylase activity, RU/mg protein: 1.86 ± 0.37 RU/mg protein
  Tryptophan hydroxylase activity, RU/mg protein: 286 ± 17 RU/mg protein
[5]; control rats (standard diet)
  Indoleamine dioxygenase activity, µmol/mg protein: 1178 ± 267 µmol/mg protein
  Monoamine oxidase activity, RU/mg protein: 0.91 ±0.06 RU/mg protein
  Serotonin: 25.51 ± 2.71 µg/g
  Tryptophan: 87.71 ± 3.41 µg/g
  Tryptophan decarboxylase activity, RU/mg protein: 1.63 ± 0.41 RU/mg protein
  Tryptophan hydroxylase activity, RU/mg protein: 291 ± 29 RU/mg protein
[6]; DIO rats (high-fat diet)
  IFN-γ level: 4.9±0.8 RU/mg protein
  IL-4 level: 5.1±1.2 RU/mg protein
  IL-6 level: 6.1±0.7 RU/mg protein
  IL-10 level: 5.8±0.8 RU/mg protein
  IL-12 level: 1.99±0.01 RU/mg protein
  TGF level: 5.2±0.9 RU/mg protein
[6]; control rats (standard diet)
  IFN-γ level: 5.0±0.8 RU/mg protein
  IL-1 level: 4.9±1.7 RU/mg protein
  IL-4 level: 5.0±0.4 RU/mg protein
  IL-6 level: 5.4±0.3 RU/mg protein
  IL-10 level: 4.9±0.2 RU/mg protein
  IL-12 level: 1.0±0.03 RU/mg protein
  TGF level: 5.1±0.6 RU/mg protein
[7]; DIO rats (high-fat diet)
  Amount of food consumed: 29 g/day
  Calorie content of food: 823 kJ/day
  BMI (g/cm^2): 0.65 g/cm^2
  Weight gain as of the end of the experiment (%): 62%
[7]; control rats (standard diet)
  Amount of food consumed: 32 g/day
  Calorie content of food: 490 kJ/day
  BMI (g/cm^2): 0.59 g/cm^2
  Weight gain as of the end of the experiment (%): 59%
[8]; [13]
  IFN-γ level: 4.1±1.2 RU/mg protein
  IL-1 level: 4.2±0.4 RU/mg protein
  IL-4 level: 5.6±1.6 RU/mg protein
  IL-6 level: 5.1±0.4 RU/mg protein
  IL-10 level: 6.8±1.1 # RU/mg protein
  IL-12 level: 2.4±0.06 RU/mg protein
  TGF level: 5.7±0.3 # RU/mg protein
[8]; DIO rats (high-fat diet), week 10, listed as Zinc
  TGF level: 5.7±0.3 RU/mg protein
[8]; [14]
  IFN-γ level: 4.6±0.6 RU/mg protein
  IL-1 level: 3.5±0.7 RU/mg protein
  IL-4 level: 4.6±0.8 RU/mg protein
  IL-6 level: 4.3±0.2 RU/mg protein
  IL-10 level: 4.1±0.5 RU/mg protein
  IL-12 level: 0.3±0.04 RU/mg protein
  TGF level: 4.1±0.4 RU/mg protein
Glucose tolerance test; listed as zinc isotope
  glucose levels in the glucose tolerance test: a drop in glucose concentration; also recorded: a decrease in glucose levels
Glucose tolerance test; listed as zinc isotope ^64Zn
  glucose levels in the glucose tolerance test: a significant decrease in glucose levels
[9]; DIO rats (high-fat diet)
  Monoamine oxylase activity, RU/mg protein: 3.11±0.08 RU/mg protein
  Serotonin: 6.33 ± 0.51 µg/g
  Tryptophan: 66.65 ± 9.62 µg/g
[9]; control rats (standard diet)
  Monoamine oxylase activity, RU/mg protein: 2.52±0.03 RU/mg protein
  Serotonin: 10.16 ± 0.62 µg/g
  Tryptophan: 56.12 ± 7.58 µg/g
Superoxide dismutase
  Superoxide dismutase activity, RU/ min per mg protein: 4.5±0.43 # RU/ min per mg protein
[1]; [10]
  body weight of rats: a significant increase in the body weight
  serum insulin levels at day 7 after the withdrawal: insulin levels in the blood of animals increased
  serum insulin levels on the first day after the drug withdrawal: slightly higher than in the group of intact animals
[1]; 3750 µg of zinc per 1 kg intraperitoneally every other day, listed as zinc isotope
  serum insulin levels at day 7 after the withdrawal: a significant increase in the insulin levels
[1]; [11]
  accumulation of zinc in the kidney tissues: significantly increased
  accumulation of zinc in the liver tissues: significantly increased
[1]; 3750 µg of zinc per 1 kg intraperitoneally, day 7 after the last administration, compared to control group and zinc acetate group
  area of islets of Langerhans: a significant increase in the islet area
